For 47 compounds, Ratio IC50 and IC50 results are on record in ChEMBL document CHEMBL2057107, “Synthesis and evaluation of aplysinopsin analogs as inhibitors of human monoamine oxidase A and B” (Bioorg Med Chem Lett, 2012).

The species entered for one experiment is Homo sapiens. Kind of experiment: Selectivity ratio of IC50 for human recombinant MAO-B to IC50 for human recombinant MAO-A.
Experiment [1] deals with T1, Amine oxidase [flavin-containing] A (Homo sapiens, UniProt P21397).
T1 sequence (P21397 whole entry): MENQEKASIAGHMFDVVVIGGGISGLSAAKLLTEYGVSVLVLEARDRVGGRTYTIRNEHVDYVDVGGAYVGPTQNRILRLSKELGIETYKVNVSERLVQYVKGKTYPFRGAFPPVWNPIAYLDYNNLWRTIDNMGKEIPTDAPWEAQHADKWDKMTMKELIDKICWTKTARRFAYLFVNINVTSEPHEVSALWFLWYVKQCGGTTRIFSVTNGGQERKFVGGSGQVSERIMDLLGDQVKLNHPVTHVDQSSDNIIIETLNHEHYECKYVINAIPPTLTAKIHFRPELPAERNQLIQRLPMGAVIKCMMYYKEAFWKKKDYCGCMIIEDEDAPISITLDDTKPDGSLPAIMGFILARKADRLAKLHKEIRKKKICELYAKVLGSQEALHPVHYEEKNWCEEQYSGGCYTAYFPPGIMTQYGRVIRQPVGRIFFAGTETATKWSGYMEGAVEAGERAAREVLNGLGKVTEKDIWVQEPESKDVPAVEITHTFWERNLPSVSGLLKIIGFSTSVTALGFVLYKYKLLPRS
Kind of experiment: Inhibition of human recombinant MAO-A using kynuramine as substrate preincubated with compound for 15 mins measured after 20 mins by fluorometric analysis.

Experiment [2] concerns the target T2, Amine oxidase [flavin-containing] B (Homo sapiens, UniProt P27338).
T2 sequence (P27338 whole entry): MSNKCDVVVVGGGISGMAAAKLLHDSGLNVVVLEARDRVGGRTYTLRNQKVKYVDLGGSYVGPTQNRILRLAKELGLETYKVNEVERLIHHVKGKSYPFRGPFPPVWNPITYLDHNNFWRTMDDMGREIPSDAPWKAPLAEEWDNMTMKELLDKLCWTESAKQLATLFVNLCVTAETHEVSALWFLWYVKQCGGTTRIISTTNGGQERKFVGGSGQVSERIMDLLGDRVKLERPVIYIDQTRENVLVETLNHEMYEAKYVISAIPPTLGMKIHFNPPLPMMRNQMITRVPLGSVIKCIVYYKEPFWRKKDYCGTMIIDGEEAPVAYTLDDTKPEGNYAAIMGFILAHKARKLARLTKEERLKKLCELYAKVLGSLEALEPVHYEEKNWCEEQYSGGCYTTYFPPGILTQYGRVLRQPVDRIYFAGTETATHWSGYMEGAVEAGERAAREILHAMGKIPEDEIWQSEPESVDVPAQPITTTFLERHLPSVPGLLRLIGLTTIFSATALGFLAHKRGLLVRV
Kind of experiment: Inhibition of human recombinant MAO-B using kynuramine as substrate preincubated with compound for 15 mins measured after 20 mins by fluorometric analysis.

SMILES strings stand for the structures. Some results are limits rather than exact numbers.

In the case of `CN1C(=N)N(C)/C(=C/c2c[nH]c3ccccc23)C1=O` [APLYSINOPSIN], in the experiment filed under Homo sapiens, the Ratio IC50 is 290. The figures for the IC50 in experiment [1] and in experiment [2] were 0.035 µM and 10 µM, respectively.
The like results for `C/N=C1/N/C(=C\c2c[nH]c3c(Br)cccc23)C(=O)N1C` were, in that order, 3.94, 1.08 µM and 4.26 µM.
On to `C/N=C1/N/C(=C\c2c[nH]c3cc(Br)ccc23)C(=O)N1C`, for which the Ratio IC50 in the experiment listed under Homo sapiens was 22.9. Besides, the IC50 was 1.12 µM in experiment [1] and 25.7 µM in experiment [2].
The like results for `CN1C(=N)N/C(=C\c2c[nH]c3ccc(Br)cc23)C1=O` were, in that order, 13.2, 0.327 µM and 4.3 µM.
The like results for `CN1C(=N)N(C)/C(=C/c2c[nH]c3c(Br)cccc23)C1=O` were, in that order, 60.5, 0.052 µM and 3.12 µM.
Taken in the same sequence, the figures for `CN1C(=N)N(C)/C(=C/c2c[nH]c3ccc(Br)cc23)C1=O` were 11.4, 0.236 µM and 2.7 µM.
For `C/N=C1/N/C(=C\c2c[nH]c3ccc(Br)cc23)C(=O)N1C`, the Ratio IC50 in the experiment listed under Homo sapiens is 5.16. Also, the values for the IC50 in experiment [1] and in experiment [2] were 3.25 µM and 16.8 µM, respectively.
The like results for `C/N=C1/N/C(=C\c2c[nH]c3cccc(Br)c23)C(=O)N1C` were, in that order, 4.9, 5.48 µM and 26.8 µM.
Taken in the same sequence, the figures for `C/N=C1\N(C)C(=O)/C(=C\c2c[nH]c3cccc(Br)c23)N1C` were 8.37, 0.623 µM and 5.22 µM.
The like results for `C/N=C1\N(C)C(=O)/C(=C\c2c[nH]c3ccccc23)N1C` [METHYLAPLYSINOPSIN] were, in that order, 92.3, 0.098 µM and 9.02 µM.
Turning to `CN1C(=N)N/C(=C\c2c[nH]c3c(Br)cccc23)C1=O`, in the experiment listed under Homo sapiens, the Ratio IC50 was 11.9. For the same compound, the half-inhibitory concentration (IC50) was 1.2 µM in experiment [1] and 14.3 µM in experiment [2].
The like results for `CSC1=NC(=O)/C(=C/c2c[nH]c3c(Br)cccc23)N1` were, in that order, 3.88, 0.627 µM and 2.43 µM.
The like results for `N=C1NC(=O)/C(=C/c2c[nH]c3ccccc23)N1` were, in that order, 2.59, 12.8 µM and 33 µM.
Taken in the same sequence, the figures for `CSC1=N/C(=C\c2c[nH]c3ccccc23)C(=O)N1` were 21.3, 2.78 µM and 59.3 µM.
As for `N=C1NC(=O)/C(=C/c2c[nH]c3c(Br)cccc23)N1`, in the experiment listed under Homo sapiens, the Ratio IC50 is 5.04. In addition, the concentration for half-maximal inhibition (IC50) turned out to be 5.52 µM in experiment [1] and 27.8 µM in experiment [2].
Turning to `C/N=C1\NC(=O)/C(=C/c2c[nH]c3ccc(Br)cc23)N1`, the Ratio IC50 in the experiment listed under Homo sapiens stood at 1.66. Also, the figures for the IC50 in experiment [1] and in experiment [2] were 1.2 µM and 2 µM, respectively.
Taken in the same sequence, the figures for `C/N=C1\NC(=O)/C(=C\c2c[nH]c3ccccc23)N1C` [ISOPLYSIN A] were 11, 3.08 µM and 33.8 µM.
Taken in the same sequence, the figures for `C/N=C1/N/C(=C\c2c[nH]c3ccccc23)C(=O)N1C` were 5.24, 5.82 µM and 30.5 µM.
Taken in the same sequence, the figures for `CN1C(=N)NC(=O)/C1=C\c1c[nH]c2ccc(Br)cc12` were 3.06, 8 µM and 24.5 µM.
Consider `N=C1NC(=O)/C(=C/c2c[nH]c3cc(Br)ccc23)N1`, for which the Ratio IC50 in the experiment listed under Homo sapiens is 6.88. The IC50 in experiment [1] came out at 3.68 µM; in experiment [2] it was 25.3 µM.
In the case of `C/N=C1\NC(=O)/C(=C\c2c[nH]c3ccc(Br)cc23)N1C`, in the experiment filed under Homo sapiens, the Ratio IC50 is 44.2. In addition, the IC50 was determined as 0.263 µM in experiment [1] and 11.6 µM in experiment [2].
The like results for `C/N=C1\N(C)C(=O)/C(=C\c2c[nH]c3ccc(Br)cc23)N1C` were, in that order, 4.38, 0.085 µM and 0.37 µM.
The like results for `CN1C(=N)N/C(=C\c2c[nH]c3cccc(Br)c23)C1=O` were, in that order, 24.4, 1.52 µM and 37 µM.
Taken in the same sequence, the figures for `N=C1NC(=O)/C(=C/c2c[nH]c3cccc(Br)c23)N1` were 11.5, 2.47 µM and 28.3 µM.
As for `C/N=C1\NC(=O)/C(=C\c2c[nH]c3cccc(Br)c23)N1C`, the Ratio IC50 in the experiment listed under Homo sapiens is 10.2. Besides, the values for the half-maximal inhibitory concentration (IC50) in experiment [1] and in experiment [2] were 2.58 µM and 26.3 µM, respectively.
Taken in the same sequence, the figures for `O=C1NC(=S)N/C1=C\c1c[nH]c2ccccc12` were 1.69, 14.3 µM and 24.3 µM.
Consider `CSC1=NC(=O)/C(=C/c2c[nH]c3ccc(Br)cc23)N1`, for which the Ratio IC50 in the experiment listed under Homo sapiens was 1.22. For the same compound, the IC50 in experiment [1] stood at 7.13 µM; in experiment [2], 8.75 µM.
The like results for `O=C1NC(=S)N/C1=C\c1c[nH]c2cccc(Br)c12` were, in that order, 1.68, 0.267 µM and 0.45 µM.
Taken in the same sequence, the figures for `O=C1NC(=S)N/C1=C\c1c[nH]c2ccc(Br)cc12` were 2.08, 1.23 µM and 2.57 µM.
For `CN1C(=N)NC(=O)/C1=C\c1c[nH]c2cccc(Br)c12`, the IC50 was 26.2 µM in experiment [1] and more than 100 µM in experiment [2].
On to `CN1C(=N)N/C(=C\c2c[nH]c3cc(Br)ccc23)C1=O`, for which, in the experiment listed under Homo sapiens, the Ratio IC50 was 23. The half-inhibitory concentration (IC50) in experiment [1] came to 0.165 µM; in experiment [2] it was 3.8 µM.
On to `C/N=C1\NC(=O)/C(=C\c2c[nH]c3cc(Br)ccc23)N1C`, for which the Ratio IC50 in the experiment listed under Homo sapiens stood at 92. The IC50 turned out to be 0.029 µM in experiment [1] and 2.67 µM in experiment [2].
Taken in the same sequence, the figures for `CN1C(=N)NC(=O)/C1=C\c1c[nH]c2ccccc12` were 3.55, 12.2 µM and 43.2 µM.
The like results for `N=C1NC(=O)/C(=C/c2c[nH]c3ccc(Br)cc23)N1` were, in that order, 1.93, 5.87 µM and 11.3 µM.
Taken in the same sequence, the figures for `CN1C(=N)NC(=O)/C1=C\c1c[nH]c2cc(Br)ccc12` were 5.87, 6.07 µM and 35.7 µM.
Consider `CN1C(=N)N(C)/C(=C/c2c[nH]c3cccc(Br)c23)C1=O`, for which the Ratio IC50 in the experiment listed under Homo sapiens is 24.8. Also, the IC50 in experiment [1] was determined as 2.07 µM; in experiment [2], 51.2 µM.
The like results for `CSC1=NC(=O)/C(=C/c2c[nH]c3cccc(Br)c23)N1` were, in that order, 5.51, 0.677 µM and 3.73 µM.
The like results for `C/N=C1\NC(=O)/C(=C\c2c[nH]c3c(Br)cccc23)N1C` were, in that order, 6.75, 1.9 µM and 12.8 µM.
In the case of `O=C1NC(=S)N/C1=C\c1c[nH]c2cc(Br)ccc12`, the Ratio IC50 in the experiment filed under Homo sapiens worked out at 1.67. Moreover, the results for the IC50 in experiment [1] and in experiment [2] were 1.53 µM and 2.57 µM, respectively.
Taken in the same sequence, the figures for `C/N=C1\N(C)C(=O)/C(=C\c2c[nH]c3cc(Br)ccc23)N1C` were 11.2, 0.018 µM and 0.207 µM.
For `CN1C(=N)N(C)/C(=C/c2c[nH]c3cc(Br)ccc23)C1=O`, the figures for the half-inhibitory concentration (IC50) in experiment [1] and in experiment [2] were 0.0056 µM and 0.447 µM, respectively.
`C/N=C1\NC(=O)/C(=C/c2c[nH]c3ccccc23)N1`: the Ratio IC50 in the experiment filed under Homo sapiens is 0.45. The concentration for half-maximal inhibition (IC50) in experiment [1] stood at 13.3 µM; in experiment [2], 6 µM.
The like results for `C/N=C1\N(C)C(=O)/C(=C\c2c[nH]c3c(Br)cccc23)N1C` were, in that order, 18.4, 0.153 µM and 2.82 µM.
Taken in the same sequence, the figures for `C/N=C1\NC(=O)/C(=C/c2c[nH]c3cc(Br)ccc23)N1` were 4.66, 4.43 µM and 20.7 µM.
The like results for `C/N=C1\NC(=O)/C(=C/c2c[nH]c3c(Br)cccc23)N1` were, in that order, 6.66, 3.9 µM and 26 µM.
`CSC1=NC(=O)/C(=C/c2c[nH]c3cc(Br)ccc23)N1`: the Ratio IC50 in the experiment listed under Homo sapiens came out at 2.65. Moreover, the half-maximal inhibitory concentration (IC50) in experiment [1] was 0.533 µM; in experiment [2], 1.42 µM.
Taken in the same sequence, the figures for `CN1C(=N)NC(=O)/C1=C\c1c[nH]c2c(Br)cccc12` were 5.62, 6.11 µM and 34.3 µM.

In general, IC50 refers to the concentration that inhibits the measured activity by half.
